Where a SMILES comes first, the peptide text is derived from it. Bridges are numbered along the chain shown (N, C = ends). [ ]: non-standard residue; d: D form. Ahx = NCCCCCC(=O)O

We go through two molecules from paper PMC6651341, “EDB-FN Targeted Peptide–Drug Conjugates for Use against Prostate Cancer” (International Journal of Molecular Sciences, 2019).

The subject of data set [1] is RWPE-1 normal human prostate epithelial cells. The experiment in a line: MTS cell viability assay, RWPE-1. The format is cell-based. As to conditions: 5 µM, after 72 h, triplicate. From the text: (§1) Human epithelial prostate cell line (RWPE-1, ATCC No. CRL-11610), human prostate cancer cell line (Human prostate carcinoma DU-145, ATCC No. HTB-81), human adenocarcinoma PC3, ATCC No. CRL-1435), androgen-sensitive human prostate adenocarcinoma cells (LNCaP, ATCC No. CRL-1740), and castration-resistant LNCaP-derived C4-2 (ATCC No. CRL-1595) were purchased from American Type Culture Collection (ATCC), Manassas, VA, USA. All the media, serum, and antibiotics were bought from American Type Culture Collection (ATCC) (Manassas, VA, USA) and Sigma life-science (St. Louis, MO, USA). Keratinocytes SFM (1×) with EGF + BPE was bought from Gibco life technologies (Thermo Fisher Scientific), Gaithersburg, MD, USA. CellTiter 96 was bought from Promega, Madison, WI, USA. […]
(§2) Cell-proliferation assay using MTS reagent was conducted against five cell lines (RWPE-1, PC3, DU-145, LNCaP, and, C4-2). […] The absorbance was obtained at 490 nm using SpectraMax M2 microplate reader to detect the formazan product. […] The percentage of cell viability was calculated by [(OD value of cells treated with the test mixture of compounds) − (OD value of culture medium)] / [(OD value of control cells) − (OD value of culture medium)] × 100%. […] Cell viability was determined by measuring the absorbance at 490 nm using SpectraMax M2 microplate spectrophotometer, as mentioned above.

Data set [2] concerns LNCaP. The experiment in a line: MTS cell viability assay, LNCaP. It counts as cell-based, human. To be noted: 5 µM, after 72 h, triplicate.
From the text: as §1, §2

Data set [3] relates to C4-2. Briefly: MTS cell viability assay, C4-2 without TGF-β. The format is cell-based, human. To be noted: 5 µM, after 72 h, triplicate. The source says: (§3) Human epithelial prostate cell line (RWPE-1, ATCC No. CRL-11610), human prostate cancer cell line (Human prostate carcinoma DU-145, ATCC No. HTB-81), human adenocarcinoma PC3, ATCC No. CRL-1435), androgen-sensitive human prostate adenocarcinoma cells (LNCaP, ATCC No. CRL-1740), and castration-resistant LNCaP-derived C4-2 (ATCC No. CRL-1595) were purchased from American Type Culture Collection (ATCC), Manassas, VA, USA. All the media, serum, and antibiotics were bought from American Type Culture Collection (ATCC) (Manassas, VA, USA) and Sigma life-science (St. Louis, MO, USA). Keratinocytes SFM (1×) with EGF + BPE was bought from Gibco life technologies (Thermo Fisher Scientific), Gaithersburg, MD, USA. CellTiter 96 was bought from Promega, Madison, WI, USA. Dithiothreitol (DTT) was bought from Thermo Fisher scientific, Carlsbad, CA, USA, and TGF-β was bought from Abcam, Boston, MA, USA.
(§4) Cell-proliferation assay using MTS reagent was conducted against five cell lines (RWPE-1, PC3, DU-145, LNCaP, and, C4-2). Cells were seeded into 96-well plates (5 × 10^3 cells for all the cells) and incubated with 100 µL of complete medium (RPMI-1640 for RWPE-1, DU-145, LNCaP, and C4-2; DMEM for PC3) overnight at 37 °C with 5% CO2. Various concentrations (0, 0.06, 0.6, 6, 60, 600 μM) of the peptide solution (20 μL) were added to cells to yield the final concentrations of peptide (0, 0.01, 0.1, 1, 10, 100 μM). The cells were kept in an incubator (37 °C, 5% CO2) for 24, 48, or 72 h accordingly for different treatment time responses. […] The absorbance was obtained at 490 nm using SpectraMax M2 microplate reader to detect the formazan product. […] The percentage of cell viability was calculated by [(OD value of cells treated with the test mixture of compounds) − (OD value of culture medium)] / [(OD value of control cells) − (OD value of culture medium)] × 100%. […] Cell viability was determined by measuring the absorbance at 490 nm using SpectraMax M2 microplate spectrophotometer, as mentioned above.

Data set [4] has as its system PC3. Briefly: MTS cell viability assay, PC3. The format is cell-based, human. As to conditions: 5 µM, after 72 h, MTS, triplicate.
From the text: as §3, §4

Data set [5] deals with DU-145. The experiment in a line: MTS cell viability assay, DU-145. The format is cell-based, human. To be noted: 5 µM, after 72 h, triplicate.
From the text: as §1, §2

For data set [6], the system named is EDB-FN. Briefly: Confocal microscopy of FAM-tagged peptides, binding to EDB-FN. It counts as cell-based, human. As to conditions: C4-2 cells, 5 μg FAM-peptide, 12 h, confocal 60×. Here is the method: Prostate cancer cell line (C4-2) was grown in RPMI medium containing 10% fetal bovine serum and 1% penicillin/streptomycin at the 37 °C in a 5% CO2 incubator. The culture medium was changed every 2–3 days until confluency was reached to 80%. Each cells group was treated with 5 μg of fluorescence-tagged peptides (17 and 18) for 12 h. A set of control groups was also prepared, which was not treated with peptides. Then all cells were fixed with 4% paraformaldehyde for 10 min and washed for 10 min (3 times with PBS). The cells were blocked in 1% FBS/PBS for 10 min and washed for 10 min (3 times with PBS). To target EDB-FN on the cell surface, the cells were incubated with a mouse monoclonal anti-fibronectin antibody (Abcam, Cambridge, MA, USA) (1:1000 dilution using 1% FBS/PBS) overnight at the 4 °C. The cells were washed for 10 min (3 times with PBS), and a Texas red-conjugated anti-mouse secondary antibody was used in 1% FBS/PBS (5:1000 dilution) at the room temperature for 1 h. Then cells were washed for 10 min (3 times with PBS), and at the end, nuclei were stained using DAPI and covered with coverslips. Representative images of cells were captured using a standard confocal microscope (Nikon Eclipse Ti-E, Nikon Instruments Inc., Melville, NY, USA) at 60× magnification, and the images were processed for binary contrast quantification.

For `CC(C)C[C@H](NC(=O)[C@H](Cc1ccccc1)NC(=O)CNC(=O)[C@@H](N)CS)C(=O)NCC(=O)NCCCCCC(=O)N[C@H]1CCCCNC(=O)CC[C@@H](C(N)=O)NC(=O)[C@H](CC(=O)O)NC(=O)[C@H](C)NC(=O)[C@H](CO)NC(=O)[C@H]([C@@H](C)O)NC(=O)[C@H](CCCNC(=N)N)NC(=O)[C@H](C(C)C)NC(=O)[C@H]([C@@H](C)O)NC1=O` [compound 9] (H-CGFLG[Ahx]KTVRTSADE-NH2; lactam 7-15), the cytotoxicity entry in data set [1], in data set [2], in data set [3], in data set [4] and in data set [5] was “did not show any significant cytotoxicity” each time.

Turning to “FAM-GFLG-C6-[KTVRTSADE] (sidechain bridge or staple) [compound 18]”, the “increase in the peptide-stained area compared to peptide 17 (binary contrast quantification)” value in data set [6] was 48%.
